This passage reports IC50 results from US4888333A, “Allymercaptoacetylsydnonimines, processes for their preparation, and their use” (Cassella Aktiengessellschaft, priority 1987, dated 1989).

The test concerns pulmonary artery of the guinea pig. Nature of the test: Relaxant effect: inhibition of CaCl2-triggered contraction of potassium-depolarized spiral strips of the pulmonary artery. As to conditions: calcium-free Tyrode's solution, 40 mmol/l potassium, 0.5 mmol/l CaCl2, mean of 4 to 6 vessel strips, read-out: IC50 (concentration of the test substance which inhibits contraction by 50%). It counts as cell-based. From the text:
The pharmacological action of the compounds of the formula I was established using a modification of the method of Godfraind and Kaba (Arch. Int. Pharmacodyn. Ther. 196, (Suppl) 35 to 49, 1972) and of Schumann et al. (Naunyn-Schmiedeberg's Arch. Pharmacol. 289, 409 to 481, 1975). This entails spiral strips of the pulmonary artery of the guinea pig being equilibrated in calcium-free Tyrode's solution and then depolarized with 40 mmol/l of potassium. Addition of 0.5 mmol/l of CaCl2 then triggers a contraction. The relaxant effect of the test substance is established by cumulative addition of concentrations in 1/2 log 10 steps. The concentration of the test substance which inhibits contraction by 50% (=IC50, mol/l) is established from the concentration/effect graph (abscissa: -log mol/l test substance, ordinate: % inhibition of the maximum contraction, mean of 4 to 6 vessel strips).

Where two headings read alike, the source gives them in different places. Some results are limits rather than exact numbers.

With `CCOC(=O)[N-]c1cn(N2CCOCC2)n[o+]1` [Molsidomine, N-ethoxycarbonyl-3-morpholinosydnonimine, reference compound], the IC50 is more than 100 µM. Moreover, the IC50 (Cavia porcellus) was 100 µM.
For `C=CCSCC(=O)[N-]c1c[n+](N(C)C2CCS(=O)(=O)C2)no1` (stereo not shown) [Example 6, 3-(N-Methyl-N-1,1-dioxotetrahydro-3-thienylamino)-N-allylmercaptoacetylsydnonimine], for the setting “Cavia porcellus”, the IC50 came out at 10 µM.
In the case of `C=CCSCC(=O)[N-]c1c[n+](N2CCN(C(=O)OCC)CC2)no1` [Example 2, 3-(4-Ethoxycarbonyl-1-piperazinyl)-N-allylmercaptoacetylsydnonimine], the IC50 (Cavia porcellus) turned out to be 80 µM.
On to `C=CCSCC(=O)[N-]c1c[n+](N(C)C)no1` [Example 7, 3-Dimethylamino-N-allylmercaptoacetylsydnonimine], for which the IC50 (Cavia porcellus) was found to be 30 µM.
Take `C=CCSCC(=O)[N-]c1c[n+](N2CCS(=O)(=O)CC2)no1` [Example 5, 3-(1,1-Dioxotetrahydro-1,4-thiazin-4-yl)-N-allylmercaptoacetylsydnonimine]: the IC50 (Cavia porcellus) was 30 µM.
Regarding `C=CCSCC(=O)[N-]c1c[n+](N2CCN(S(C)(=O)=O)CC2)no1` [Example 3, 3-(4-Methylsulphonyl-1-piperazinyl)-N-allylmercaptoacetylsydnonimine], the IC50 (Cavia porcellus) was 30 µM.
In the case of `C=CCSCC(=O)[N-]c1c[n+](N2CCN(S(=O)(=O)N(C)C)CC2)no1` [Example 4, 3-(4-Dimethylaminosulphonyl-1-piperazinyl)-N-allylmercaptoacetylsydnonimine], the IC50 (Cavia porcellus) is 30 µM.
Consider `C=CCSCC(=O)[N-]c1c[n+](N2CCOCC2)no1` [Example 1, 3-Morpholino-N-allylmercaptoacetylsydononimine], for which the IC50 (Cavia porcellus) amounted to 20 µM.
On the same count and under the same terms, under `C=CCSCC(=O)[N-]c1c[n+](N2CCCCC2)no1` [Example 8, 3-Piperidino-N-allylmercaptoacetylsydnonimine] stands 20 µM.
